Consider seven molecules from article PMC11211441, “Distributable, metabolic PET reporting of tuberculosis” (Nature Communications, 2024).

Several values for one entry are separate records, joined by “and”; a condition that tells them apart may be missing. Equal entries are not always repeated.

For orientation: fraction remaining means what is left of the initial amount, in per cent. A higher fraction remaining goes with greater stability. By Km is commonly meant the substrate concentration at which the rate is half of its maximum. By kcat is commonly meant the maximal rate divided by the concentration of active sites. The kcat/Km is the second-order rate constant that governs catalysis at low substrate concentration.

In series [1] the test system is mammalian (porcine) trehalase. Description: Trehalase degradation assay. Type of series: in vitro ADME. The conditions noted are these: 0.3 units/mL trehalase, 10 mM substrate; for degradation by trehalase (Figure S5, released glucose): pH 5.7, 37 °C, 60 minutes. Here is the method: The metabolic stabilities of the remaining three analogs, [^18F]FDT, 4-epi-[^18F]FDT and 6-[^18F]FDT were tested. Although, human trehalose-degrading trehalase activity is low and restricted primarily to the brush-border of the kidney where it is thought to be GPI-anchored[28],[32], it can be elevated in some diseases, therefore we also tested degradation of the analogs in vitro using high concentrations of mammalian (porcine) trehalase (0.3 units/mL, 10 mM substrate, Fig. S5). […]
Figure S5. Trehalase Assays.
Substrates were prepared to a final concentration of 10 mM in 0.05 M citric acid, pH 5.7 including trehalase stock solution (0.3 units/mL). The reaction mixture was incubated at 37 °C for 60 minutes, and then quenched with an equal volume of 0.1 M Tris, pH 7.5. Released glucose was measured with glucose assay kit (see Methods).

Series [2] is described as follows: In vivo metabolism of 18F-labeled trehalose analogs in rabbits. Here is the method: Finally, putative degradation was also probed directly in vivo using both Mtb-infected and naïve rabbits.
Blood (100 µL), urine (100–300 µL) and lesion samples were collected from animals and diluted 2:1 v/v with acetonitrile to sterilize them. These samples were then vortexed, centrifuged and the supernatant analyzed by either HPLC or TLC. The TLC silica gel plates used to assay these metabolism samples and lesion extracts were 150 Å Silica Gel HL 250 µm 10 ×20 cm channeled plates with a pre-adsorbent zone purchased from Analtech/iChromatography (Newark, DE). TLC plates were visualized via exposure to a phosphor screen for 16 h prior to imaging using a phosphor screen and Typhoon FLA7000 (GE Healthcare, Pittsburgh PA) or using a BioScan AR-2000 reader.

The nature of series [3]: [19F]FDT clearance and in vivo stability in marmosets (plasma LC-MS, 19F NMR). The conditions noted are these: common marmoset, plasma, iv, 20 mg, marmosets M1-M3 (duplicate measurements), 20 mg IV. More on the design: species or system common marmosets. How it is done:
In order to determine [^19F]FDT metabolism in vivo, we assessed concentration vs time in two mammalian species: common marmosets and C57BL/6 mice. For marmosets weighing between 290.3–340.3 g, 20 mg of sterile-filtered FDT in PBS was injected IV (n = 3) and ~200 μL blood samples were taken from the femoral vein at 0 min, 5 min, 30 min, 60 min, 90 min and 180 min post injection. Samples were spun (4000 rcf for 10 mins at room temp) to separate red cell mass from plasma. Plasma portion was separated and stored at −80 °C for further analysis. Similarly, mice weighing from 18.7–20.5 g were injected (n = 5) with 5 mg of filter-sterilized FDT solution dissolved in PBS solution, pH 7.4. Mandibular blood samples were taken at 2 min, 15 min, 30 min and 45 min post injection. For the last sample in each mouse, the animal was bled out to get maximum sample for NMR analysis. Final urine samples were collected in 3 out of 5 mice through free catch. Blood samples were centrifuged (6500 rcf for 4 mins at room temp) to separate red cell mass from plasma, and plasma was separated and stored at −80 °C prior to analyzes.
Plasma samples from −80 °C were thawed on ice and mixed with 80% acetonitrile to precipitate plasma proteins and other biomolecules. Samples were centrifuged at 10,000 g, 4 °C for 10 min.
Figure S37. [19F]FDT Clearance and In Vivo Stability in Non-human Primates […]
A, B) 20 mg [19F]FDT was injected into marmosets (A, n=3 biological replicates, each measured in duplicate) and 5 mg FDT injected into mice (B, n=5 biological replicates, each measured in triplicate). […]
marmosets (A) and mice (B).
[19F]FDG was detected, consistent with the only low levels of metabolism seen with [18F]FDT in rabbits (see Figure S3G). C-F) We further analyzed the potential degradation of FDT into FDG by 19F NMR spectroscopy in marmoset plasma (C) sample from 5 min time point, mouse plasma (D) sample from 30 min time point and mouse urine samples from 30 min (E) and 45 min (F) time points, respectively. In all these samples only [19F]FDT was observed (d -201.2). The data points are average values from three replicates with error bars ± SD.
(1 picture or pasted object on this page, not shown here)

A short description of series [4]: Human microsomal stability assay. The conditions noted are these: human, microsomes, pH 7.4, %Remaining, human liver microsomes. Here is the method:
Microsomal stability assay was carried out as described previously. In brief, 10 x reduced nicotinamide adenine dinucleotide phosphate (NADPH)-regenerating system was freshly prepared by dissolving 37.2 mg glucose-6-phosphate (Sigma) in 1 mL of 100 mM potassium phosphate buffer, 39.8 mg nicotinamide adenine dinucleotide phosphate (NADP, Sigma) in 1 mL of potassium phosphate buffer, 11.5 U glucose-6-phosphate dehydrogenase (Thermo) in 1 mL of potassium phosphate buffer and 26.8 mg MgCl2.6H2O (Sigma) in 1 mL of distilled water. All these solutions were combined and kept on ice. […] After 5 min, 18 µL of NADPH-regenerating system was added to initiate reaction. Immediately after adding the NADPH regenerating system, 50 µL, 0 min time point sample was taken and quenched with equal volume of ice-cold methanol. Similarly further samples were taken at 10 min, 30 min, 60 min, 90 min and 120 min. Samples were centrifuged at 10,000 g at 4 °C for 10 min. […] After incubating the reaction mix at 37 °C for 5 min, 36 µL of NADPH regenerating system was added to initiate the reaction. 50 µL samples were taken at 0 min, 2.5 min, 5 min, 10 min, 20 min, 40 min and 80 min and reactions were quenched by adding equal amount of ice-cold acetonitrile and kept on ice.
For orientation: Liver microsomes are a subcellular fraction often used to study metabolism.

Series [5] relates to Mtb-infected marmoset lung lesions. Description: PET/CT imaging of tracer uptake in marmoset TB model. The format is in vivo. Conditions: for SUV/CMR / TGA/CMR: FDG, individual lesions. How it is done:
Rabbits and marmosets at NIAID were anaesthetized and maintained during imaging[49],[67]. Syringes of FDG or FDT were measured in a dose calibrator immediately before and after injection, targeting = injected doses of 2 mCi/kg. During uptake and distribution of the probes, a CT scan from the base of the skull spanning the lungs and the upper abdominal cavity was acquired as described for each species on a helical eight-slice Neurological Ceretom CT scanner (NeuroLogicia, Danvers, MA) operated as part of a hybrid pre-clinical PET/CT system utilizing a common bed. The animal bed was then retracted into the microPET gantry (MicroPET Focus 220, Siemens Preclinical Solutions, Knoxville, TN) and sixty minutesβ ± 5 min post FDG injection, a series of 2 or 3, 10 min emission scans with 75 mm thick windows with a 25 mm overlap were acquired caudal to cranial. […] For the blocking studies, injections of 150 µg of [^19F]FDT synthesized as described above were administered 60 min and 5 min prior to the [^18F]-FDT tracer and the scans were acquired as before. Two animals were used in the blocking studies with one animal receiving the blocking agent while the other was administered saline only prior to the FDT tracer. Two days later, the administrations were reversed so that the second animal received the blocking agent. The emission data for all scans were processed and corrected. Cynomolgus macaques (n = 3) at the University of Pittsburgh were imaged using a Siemens microPET Focus 220 PET scanner and a Neurological Ceretom CT scanner. Paired FDG and FDT scans were collected on only 2 macaques pre-necropsy. Scans were viewed using OsiriX (Pixmeo, Geneva, Switzerland) to identify and analyze individual granulomas as described previously.
Dense lesion centers were subsequently identified for inclusion in the lung region manually and the program calculated the FDG signal parameters. In addition, each lesion within the lung was marked with a 3-D region of interest (ROI). In uninfected marmosets administered FDT, ROIs with a similar-volume (dia. 5 to 7 mm) were distributed in the lung as mock lesions according to the method of Ordonez et al.[70] and the SUV statistics for the ROIs were captured into excel sheets for analysis.

The conditions of series [6]: 1.5 hr voiding window; cited from earlier work.
Substrate in series [7]: O=C[C@H](O)[C@@H](O)[C@H](O)[C@H](O)COP(=O)(O)O
As to the kind of experiment: OtsA^Sf enzyme kinetic assay (NADH-linked continuous). Type of series: biochemical, E. coli. The conditions noted are these: other: enzyme expressed from Spodoptera frugiperda, coupled-enzyme spectrophotometric assay, 25 °C, pH 7.5.

As to `OC[C@H]1O[C@H](O[C@H]2O[C@H](CO)[C@@H](O)[C@H](O)[C@H]2O)[C@H](O)[C@@H](O)[C@@H]1O` [trehalose, reference compound], in series [1], the degradation by trehalase entry is reported as “complete degradation” and the “degradation by trehalase (Figure S5, released glucose)” value came to 100.

Take `OC[C@H]1O[C@H](O[C@H]2O[C@H](CF)[C@@H](O)[C@H](O)[C@H]2O)[C@H](O)[C@@H](O)[C@@H]1O` [6-[^19F]FDT]: in series [1], the degradation by trehalase came out at 14% and the “degradation by trehalase (Figure S5, released glucose)” value was 14.

For the molecule `OC[C@H]1O[C@H](O[C@H]2O[C@H](CO)[C@@H](F)[C@H](O)[C@H]2O)[C@H](O)[C@@H](O)[C@@H]1O` [4-epi-[^19F]FDT], in series [1], the degradation by trehalase result is “little or no degradation” and the “degradation by trehalase (Figure S5, released glucose)” value was 0.

For `OC[C@H]1O[C@H](O[C@H]2O[C@H](CO)[C@H]([18F])[C@H](O)[C@H]2O)[C@H](O)[C@@H](O)[C@@H]1O` [4-epi-[^18F]FDT], the “epi-4-Ftre (%)” value in series [2] (Control Rabbits, 0 min) is given as 100%; in series [2] (Control Rabbits, 15 min), 87%; in series [2] (Control Rabbits, 30 min) it was 78%; in series [2] (Control Rabbits, 45 min), 87%; in series [2] (Control Rabbits, 60 min), 73%; in series [2] (Control Rabbits, 90 min), 82%. Further, the “epi-4-Ftre (%)” value is reported as 76% in series [2] (Control Rabbits, 120 min); 71% in series [2] (Control Rabbits, 180 min); 100% in series [2] (Infected Rabbits, 0 min); 89% in series [2] (Infected Rabbits, 15 min); 87% in series [2] (Infected Rabbits, 30 min); 84% in series [2] (Infected Rabbits, 45 min). Besides, the “epi-4-Ftre (%)” value is 81% in series [2] (Infected Rabbits, 60 min); 76% in series [2] (Infected Rabbits, 90 min); 91% in series [2] (Infected Rabbits, 120 min); 90% in series [2] (Infected Rabbits, 180 min). This molecule yielded a metabolism in series [2] (rabbits, after 3 h) of 30%.

As to `OC[C@H]1O[C@H](O[C@H]2O[C@H](CO)[C@@H](O)[C@H](O)[C@H]2F)[C@H](O)[C@@H](O)[C@@H]1O` [FDT], the concentration at 5 min in series [3] (5 min post injection) was 551 µM. Moreover, the concentration at 30 min in series [3] (30 min post injection) worked out at 250 µM. In series [3] (61 min post injection), this molecule had a concentration at 61 min of 173 µM. Besides, the concentration at 93 min in series [3] (93 min post injection) is 97.1 µM. The share remaining at 0 h, 3 µM in series [4] (0 min) came out at 100%. This molecule returned a share remaining at 5 min, 3 µM in series [4] (5 min) of 74.5%. The share remaining at 10 min, 3 µM in series [4] (10 min) was determined as 58.5%. In series [4] (20 min), this molecule returned an amount remaining at 20 min, 3 µM of 55.3%. For the same molecule, in series [4] (40 min), the amount remaining at 40 min, 3 µM amounted to 56.6%. The molecule also yielded an amount remaining at 2.5 min, 3 µM in series [4] ([…]) of 80.1%.

Turning to “2-[^18F]fluoro-2-deoxy-D-glucose [[^18F]FDG]”, in series [5] (4 wks HRZE), the SUV/CMR was 12.2544 and 1.845 and 5.193 and 8.368 and 5.63 and 1.286 and 5.952 and 5.153 and 7.3616; the TGA/CMR is 11.4228 and 0.1147 and 1.936 and 8.84 and 2.799 and 0.1598 and 9.617 and 2.242 and 13.7241. For the same molecule, in series [5] (Pre-Rx), the SUV/CMR was 5.878 and 2.269 and 2.719 and 4.3218 and 3.722 and 2.294 and 3.185 and 2.868 and 3.6021; the TGA/CMR is 7.811 and 0.2621 and 2.6706 and 8.989 and 4.301 and 0.5302 and 6.073 and 2.651 and 5.8274. For the same molecule, the “uptake response to treatment (SUVs and TLG)” value in series [5] (marmosets, 4 weeks HRZE) is “mixed, refractory and inconsistent uptake”. In series [6], the “dose, adrenals” value is listed as 0.013 mSv/MBq; the “dose, kidneys” value was 0.020 mSv/MBq; the “dose, urinary bladder wall” value is on record as 0.086 mSv/MBq.

B1: OtsA^Sf (Escherichia coli K-12) (protein)
chain: MSRLVVVSNRIAPPDEHAASAGGLAVGILGALKAAGGLWFGWSGETGNEDQPLKKVKKGNITWASFNLSEQDLDEYYNQFSNAVLWPAFHYRLDLVQFQRPAWDGYLRVNALLADKLLPLLQDDDIIWIHDYHLLPFAHELRKRGVNNRIGFFLHIPFPTPEIFNALPTYDTLLEQLCDYDLLGFQTENDRLAFLDCLSNLTRVTTRSAKSHTAWGKAFRTEVYPIGIEPKEIAKQAAGPLPPKLAQLKAELKNVQNIFSVERLDYSKGLPERFLAYEALLEKYPQHHGKIRYTQIAPTSRGDVQAYQDIRHQLENEAGRINGKYGQLGWTPLYYLNQHFDRKLLMKIFRYSDVGLVTPLRDGMNLVAKEYVAAQDPANPGVLVLSQFAGAANELTSALIVNPYDRDEVAAALDRALTMSLAERISRHAEMLDVIVKNDINHWQECFISDLKQIVPRSAESQQRDKVATFPKLA
notes: His tag (type from Ni-NTA purification and anti-His blot) (C); made in house; host or cells: Spodoptera frugiperda Sf9 cells (Bac-to-Bac baculovirus)
For B1, in series [7], the Km worked out at 4.9 ± 0.5 mM, the kcat was found to be 57.5 ± 2.3 s⁻¹ and the catalytic efficiency (kcat/Km) was 11900 M⁻¹ s⁻¹.
